Reference: PubChem BioAssay AID248 (DTP/NCI, 2004)
Toxic doses and inconclusive results are not listed. Cut-off read from the data, not from the text of the source: active = T/C of 150% or more; inactive = T/C below 125%.

Test system: L1210 leukemia ip in BDF1 mice, survival T/C
Test: NCI In Vivo Anticancer Drug Screen. Data for tumor model L1210 Leukemia (intraperitoneal) in B6D2F1 (BDF1) mice
Details: endpoint: mean survival time, higher = longer survival
Procedure, shortened: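 Transplantable tumor model; survival measured in treated vs vehicle control mice. Value = treated/control.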

Measured: T/C

C1=CC2(CCC13CS3)CS2 (stereo not drawn)
inactive: dose: 100.0 mg/kg/injection, schedule: Q04DX002 (ip), vehicle: saline with Tween-80 91 % of control | dose: 200.0 mg/kg/injection, schedule: Q04DX002 (ip), vehicle: saline with Tween-80 88 % of control | dose: 400.0 mg/kg/injection, schedule: Q04DX002 (ip), vehicle: saline with Tween-80 91 % of control

O=C(Nc1cccc2ccccc12)c1ccc([N+](=O)[O-])s1
inactive: dose: 50.0 mg/kg/injection, schedule: Q01DX005 (ip), vehicle: water 87 % of control | dose: 100.0 mg/kg/injection, schedule: Q01DX005 (ip), vehicle: water 89 % of control | dose: 200.0 mg/kg/injection, schedule: Q01DX005 (ip), vehicle: water 87 % of control | dose: 400.0 mg/kg/injection, schedule: Q01DX005 (ip), vehicle: water 91 % of control

Cc1cccc(C(=O)[O][Pb]([CH3])([CH3])[CH3])c1
inactive: dose: 12.5 mg/kg/injection, schedule: Q04DX002 (ip), vehicle: Klucel (hydroxypropylcellulose) (HPC) 100 % of control

COC(=O)N1C2CC=C(C)CC21 (stereo not drawn)
inactive: dose: 75.0 mg/kg/injection, schedule: Q01DX001 (ip), vehicle: saline 94 % of control | dose: 150.0 mg/kg/injection, schedule: Q01DX001 (ip), vehicle: saline 104 % of control | dose: 300.0 mg/kg/injection, schedule: Q01DX001 (ip), vehicle: saline 100 % of control

CC(C)=CCC/C(C)=C\C(N)=O
inactive: dose: 100.0 mg/kg/injection, schedule: Q01DX001 (ip), vehicle: saline 106 % of control | dose: 200.0 mg/kg/injection, schedule: Q01DX001 (ip), vehicle: saline 92 % of control | dose: 400.0 mg/kg/injection, schedule: Q01DX001 (ip), vehicle: saline 111 % of control

CCOc1ncnc2c1nnn2C1OC(CO)C(O)C1O (stereo not drawn)
inactive: dose: 12.5 mg/kg/injection, schedule: Q01DX001 (ip), vehicle: saline with Tween-80 105 % of control | dose: 25.0 mg/kg/injection, schedule: Q01DX001 (ip), vehicle: saline with Tween-80 107 % of control | dose: 50.0 mg/kg/injection, schedule: Q01DX001 (ip), vehicle: saline with Tween-80 105 % of control | dose: 100.0 mg/kg/injection, schedule: Q01DX001 (ip), vehicle: saline with Tween-80 104 % of control | dose: 200.0 mg/kg/injection, schedule: Q01DX001 (ip), vehicle: saline with Tween-80 105 % of control | dose: 400.0 mg/kg/injection, schedule: Q01DX001 (ip), vehicle: saline with Tween-80 108 % of control

CCCCCC(=O)/C=C/c1ccc(C)cc1
inactive: dose: 100.0 mg/kg/injection, schedule: Q04DX003 (ip), vehicle: saline 102 % of control | dose: 200.0 mg/kg/injection, schedule: Q04DX003 (ip), vehicle: saline 100 % of control | dose: 400.0 mg/kg/injection, schedule: Q04DX003 (ip), vehicle: saline 112 % of control
